33 compounds from patent EP1857440A1, “Novel compounds, isomer thereof, or pharmaceutically acceptable salts thereof as vanilloid receptor antagonist; and pharmaceutical compositions containing the same” (Amorepacific Corporation, priority 2006, dated 2007) can be followed below.

The term IC50 denotes the concentration that gives 50% inhibition.

T1 sequence (O35433 whole entry): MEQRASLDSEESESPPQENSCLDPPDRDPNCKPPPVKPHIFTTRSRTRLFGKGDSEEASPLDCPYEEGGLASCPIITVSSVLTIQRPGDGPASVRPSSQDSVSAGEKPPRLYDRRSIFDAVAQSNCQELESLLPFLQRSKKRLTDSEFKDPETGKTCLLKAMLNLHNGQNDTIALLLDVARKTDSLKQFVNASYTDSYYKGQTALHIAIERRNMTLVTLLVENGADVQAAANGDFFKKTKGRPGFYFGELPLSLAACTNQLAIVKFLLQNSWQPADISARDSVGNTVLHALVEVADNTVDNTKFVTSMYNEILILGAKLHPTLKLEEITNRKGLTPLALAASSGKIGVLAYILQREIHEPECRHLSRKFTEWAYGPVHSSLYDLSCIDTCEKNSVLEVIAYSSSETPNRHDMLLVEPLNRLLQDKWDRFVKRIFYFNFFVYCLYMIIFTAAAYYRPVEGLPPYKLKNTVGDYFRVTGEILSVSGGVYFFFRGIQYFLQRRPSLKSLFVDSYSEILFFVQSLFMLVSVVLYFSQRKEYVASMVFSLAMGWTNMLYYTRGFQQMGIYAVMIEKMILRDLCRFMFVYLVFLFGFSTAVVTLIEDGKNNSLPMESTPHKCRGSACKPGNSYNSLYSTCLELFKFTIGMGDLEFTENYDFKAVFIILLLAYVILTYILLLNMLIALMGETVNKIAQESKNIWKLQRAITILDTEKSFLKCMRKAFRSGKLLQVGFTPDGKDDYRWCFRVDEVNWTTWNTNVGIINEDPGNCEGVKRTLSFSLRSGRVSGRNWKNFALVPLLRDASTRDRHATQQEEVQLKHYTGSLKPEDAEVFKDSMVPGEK

This experiment has as its target T1, vanilloid receptor (Rattus norvegicus, UniProt O35433).
T1 construct: DRG nerve cells from the primary culture of 2 days were equilibrated by washing 4 times; endogenous in cells; host or cells: primary culture of dorsal root ganglion (DRG) neurons from neonatal SD rats
Kind of experiment: 45Ca influx test (calcium uptake) in primary cultured neonatal rat DRG neurons, capsaicin-stimulated. To be noted: capsaicin 0.5 µM, 45Ca 10 µCi/ml, 10 mins at room temperature, read-out: Antagonist Calcium Uptake Test (IC50). Format: cell-based, SD rats. As for the experimental part:
1) Separation of spinal dorsal root ganglia (DRG) in newborn rats and primary culture thereof
Neonatal (2-3 day old or younger than 2-3 day old) SD rats were put in ice for 5 minutes to anesthetize and disinfected with 70% ethanol. DRG of all part of spinal cord were dissected (Wood et al., 1988, J. Neurosci. 8, pp3208-3220) and collected in DME/F12 medium to which 1.2g/l sodium bicarbonate, 50mg/l gentamycin were added. The DRG were incubated sequentially at 37°C for 30 min in 200 U/ml collagenase and 2.5mg/ml trypsin, separately. The gangiia were washed twice with DME/F12 medium supplemented with 10% horse serum, triturated through a fire-polished Pasteur pipette, filtered through Nitex 80 membrane to obtain single cell suspension and the suspension was washed once more. This was subjected to centrifugation, then resuspended in cell culture medium at certain level of cell density. As the cell culture medium, DME/F12 medium supplemented with 10% horse serum was diluted with identical medium conditioned by C6 glioma cells 2 days on a confluent monolayer (1:1), and NGF (Nerve Growth Factor) was added to adjust 200ng/ml as final concentration. After the cells were grown 2 days in medium where cytosine arabinoside (Ara-C, 100 µM) was added to kill dividing nonneuronal cells, medium was changed to one without Ara-C. The resuspended cells were plated at a density of 1500-2000 neurons/well onto Terasaki plates previously coated with 10 µg/ml poly-D-ornithine.
2) ^45 Ca influx experiments
DRG nerve cells from the primary culture of 2 days were equilibrated by washing 4 times with HEPES (10mM, pH 7.4)-buffered Ca ^2+, Mg^2+-free HBSS (H-HBSS). The solution in each well was removed from the individual well. Medium containing the test compound plus capsaicin (final concentration 0.5 µM) and ^45Ca (final concentration 10 µCi/ml) in H-HBSS was added to each well and incubated at room temperature for 10 mins. Terasaki plates were washed five times with H-HBSS and dried at room temperature. To each well, 0.3% SDS (10 µl) was added to elute ^45Ca. After the addition of scintillation cocktail of into each well, the amount of ^45Ca influx into neuron was measured by counting radioactivity. […] [Table 1] Results of Calcium Influx Test
On to `CC(C)(C)c1ccc(OCC(=O)NCc2ccc(NS(C)(=O)=O)cc2)cc1` [Example 1, 2-(4-tert-Butylphenoxy)-N-(4-methanesulfonylaminobenzyl)acetamide], for which the IC50 came to 0.11 µM.
In the case of `C=Cc1cc(CNC(=O)COc2ccc(C(C)(C)C)cc2)ccc1NS(C)(=O)=O` [Example 4, 2-(4-tert-Butylphenoxy)-N-(4-methanesulfonylamino-3-vinylbenzyl)acetamide] it was 0.081 µM; in that of `CCc1cc(CNC(=O)COc2ccc(C(C)(C)C)cc2)cc(F)c1NS(C)(=O)=O` [Example 7, 2-(4-tert-Butylphenoxy)-N-(3-ethyl-5-fluoro-4-methanesulfonylaminobenzyl)acetamide], 0.13 µM.
With `Cc1cc(CNC(=O)COc2ccc(C(C)(C)C)cc2)cc(Cl)c1NS(C)(=O)=O` [Example 8, 2-(4-tert-Butyl-phenoxy)-N-(3-chloro-4-methanesulfonylamino-5-methylbenzyl)acetamide] the figure was 0.11 µM; with `Cc1cc(NS(C)(=O)=O)c(F)cc1CNC(=O)COc1ccc(C(C)(C)C)cc1` [Example 9, 2-(4-tert-Butylphenoxy)-N-(5-fluoro-4-methanesulfonylamino-2-methylbenzyl)acetamide], 0.33 µM.
As for `Cc1cc(CNC(=O)COc2ccc(C(C)(C)C)cc2)cc(F)c1NS(C)(=O)=O` [Example 10, 2-(4-tert-Butylphenoxy)-N-(3-fluoro-4-methanesulfonylamino-5-methylbenzyl) acetamide], the half-maximal inhibitory concentration (IC50) is 0.16 µM.
In the case of `C[C@@H](NC(=O)COc1ccc(C(C)(C)C)cc1)c1ccc(NS(C)(=O)=O)cc1` [Example 11, (R)-2-(4-tert-Butylphenoxy)-N-[1-(4-methanesulfonylaminophenyl)ethyl]acetamide] it was 0.096 µM.
In the case of `C[C@@H](Oc1ccc(C(C)(C)C)cc1)C(=O)NCc1ccc(NS(C)(=O)=O)c(F)c1` [Example 13, (R)-2-(4-tert-Butylphenoxy)-N-(3-fluoro-4-methanesulfonylaminobenzyl)propionamide] it was 0.16 µM; in that of `C[C@H](Oc1ccc(C(C)(C)C)cc1)C(=O)NCc1ccc(NS(C)(=O)=O)c(F)c1` [Example 14, (S)-2-(4-tert-Butylphenoxy)-N-(3-fluoro-4-methanesulfonylaminobenzyl)propionamide], 0.76 µM.
In the case of `C[C@@H](NC(=S)COc1ccc(C(C)(C)C)cc1)c1ccc(NS(C)(=O)=O)cc1` [Example 15, (R)-2-(4-tert-Butylphenoxy)-N-[1-(4-methanesulfonylaminophenyl)ethyl]thioacetamide] it was 0.68 µM; in that of `C[C@@H](N/C(COc1ccc(C(C)(C)C)cc1)=N/C#N)c1ccc(NS(C)(=O)=O)cc1` [Example 17, (R)-2-(4-tert-Butylphenoxy)-N-[1-(4-methanesulfonylaminophenyl)ethyl]-N'-cyanoacetamidine], 0.21 µM.
Take `CC(C)(C)c1ccc(SCC(=O)NCc2ccc(NS(C)(=O)=O)c(F)c2)cc1` [Example 19, 2-(4-tert-Butyl-phenylsulfanyl)-N-(3-fluoro-4-methanesulfonylaminobenzyl)-acetamide]: the IC50 is 1.5 µM.
As for `C#Cc1cc(CNC(=O)CSc2ccc(C(C)(C)C)cc2)cc(F)c1NS(C)(=O)=O` [Example 20, 2-(4-tert-Butyl-phenylsulfanyl)-N-(3-ethynyl-5-fluoro-4-methanesulfonylamino-benzyl)-acetamide], the IC50 stood at 0.19 µM.
In the case of `CC(C)(Oc1ccc(C(F)(F)F)cc1)C(=O)NCc1ccc(NS(C)(=O)=O)c(Cl)c1` [Example 21, N-(3-Chloro-4-methanesulfonylamino-benzyl)-2-methyl-2-(4-trifluoromethyl-phenoxy)-propionamide] it was above 10 µM; in that of `CS(=O)(=O)Nc1ccc(CNC(=O)COc2ccc(Cl)cc2Cl)cc1F` [Example 22, 2-(2,4-Dichloro-phenoxy)-N-(3-fluoro-4-methanesulfonylaminobenzyl)-acetamide], above 10 µM; in that of `CC(C)(Oc1ccc(C(F)(F)F)cc1)C(=O)NCc1ccc(NS(C)(=O)=O)c(F)c1` [Example 23, N-(3-Fluoro-4-methanesulfonylamino-benzyl)-2-methyl-2-(4-trifluoromethyl-phenoxy)-propionamide], above 10 µM.
With `CS(=O)(=O)Nc1ccc(CNC(=O)COc2ccc(Cl)c(Cl)c2)cc1F` [Example 25, 2-(3,4-Dichloro-phenoxy)-N-(3-fluoro-4-methanesulfonylaminobenzyl)-acetamide] the figure was 2.3 µM; with `CS(=O)(=O)Nc1ccc(CNC(=O)COCc2ccc(C(F)(F)F)cc2)cc1F` [Example 26, N-(3-Fluoro-4-methanesulfonylamino-benzyl)-2-(4-trifluoromethylbenzyloxy)-acetamide], above 10 µM; with `CS(=O)(=O)Nc1ccc(CNC(=O)COc2ccc(-c3ccccc3)cc2)cc1F` [Example 27, 2-(Biphenyl-4-yloxy)-N-(3-fluoro-4-methanesulfonylamino-benzyl)-acetamide], above 10 µM.
With `CS(=O)(=O)Nc1ccc(CNC(=O)COc2ccc(OC(F)(F)F)cc2)cc1F` [Example 28, N-(3-Fluoro-4-methanesulfonylaminobenzyl)-2-(4-(trifluoromethoxy)phenoxy)acetamide] the figure was 4.3 µM.
As for `CS(=O)(=O)Nc1ccc(CNC(=O)COc2ccc3c(c2)OCO3)cc1F` [Example 29, 2-(Benzo[1,3]dioxol-5-yloxy)-N-(3-fluoro-4-methanesulfonylaminobenzyl)-acetamide], the IC50 was above 10 µM.
In the case of `C=Cc1cc(CNC(=O)COc2ccc3c(c2)OCO3)cc(F)c1NS(C)(=O)=O` [Example 30, 2-(Benzo[1,3]dioxol-5-yloxy)-N-(3-fluoro-4-methanesulfonylamino-5-vinyl-benzyl)-acetamide] it was 3.4 µM; in that of `COc1cc(C)ccc1OCC(=O)NCc1ccc(NS(C)(=O)=O)c(F)c1` [Example 31, N-(3-Fluoro-4-methanesulfonylamino-benzyl)-2-(2-methoxy-4-methyl-phenoxy)-acetamide], above 10 µM.
As to `COc1cc(Cl)ccc1OCC(=O)NCc1ccc(NS(C)(=O)=O)c(F)c1` [Example 32, 2-(4-Chloro-2-methoxy-phenoxy)-N-(3-fluoro-4methanesulfonylamino-benzyl)-acetamide], the half-maximal inhibitory concentration (IC50) was above 10 µM.
As for `CS(=O)(=O)Nc1ccc(CNC(=O)COc2cc(Cl)cc(Cl)c2)cc1F` [Example 33, N-(3-Fluoro-4-methanesulfonylaminobenzyl)-2-(3,5-dichlorophenoxy)acetamide], the concentration for half-maximal inhibition (IC50) was above 10 µM.
In the case of `CS(=O)(=O)Nc1ccc(CNC(=O)COc2ccc(Cl)cc2)cc1F` [Example 34, 2-(4-Chloro-phenoxy)-N-(3-fluoro-4-methanesulfonylamino-benzyl)-acetamide], the IC50 was 8.7 µM.
As for `Cc1cc(OCC(=O)NCc2ccc(NS(C)(=O)=O)c(F)c2)ccc1[N+](=O)[O-]` [Example 35, N-(3-Fluoro-4-methanesulfonylaminobenzyl)-2-(3-methyl-4-nitrophenoxy)acetamide], the IC50 was above 10 µM.
For the compound `CS(=O)(=O)Nc1ccc(CNC(=O)COc2ccc(I)cc2)cc1F` [Example 36, N-(3-Fluoro-4-methanesulfonylamino-benzyl)-2-(4-iodo-phenoxy)-acetamide], the 50% inhibitory concentration (IC50) is 1.2 µM.
In the case of `CS(=O)(=O)Nc1ccc(CNC(=O)COc2ccc(F)cc2F)cc1F` [Example 37, N-(3-Fluoro-4-methanesulfonylaminobenzyl)-2-(2,4-difluorophenoxy)acetamide] it was above 10 µM; in that of `CS(=O)(=O)Nc1ccc(CNC(=O)COc2c(I)cc(C(F)(F)F)cc2I)cc1F` [Example 38, 2-(2,6-Diiodo-4-trifluoromethyl-phenoxy)-N-(3-fluoro-4-methanesulfonylamino-benzyl)-acetamide], 2.6 µM.
In the case of `CS(=O)(=O)Nc1ccc(CNC(=O)COc2ccc(C(F)(F)F)cc2I)cc1F` [Example 39, N-(3-Fluoro-4-methanesulfonylamino-benzyl)-2-(2-iodo-4-trifluoromethyl-phenoxy)-acetamide] it was above 10 µM; in that of `CC(C)(C)c1cccc(OCC(=O)NCc2ccc(NS(C)(=O)=O)c(F)c2)c1` [Example 40, N-(3-Fluoro-4-methanesulfonylaminobenzyl)-2-(3-tert-butylphenoxy)acetamide], 1.8 µM; in that of `CCCOc1ccc(OCC(=O)NCc2ccc(NS(C)(=O)=O)c(F)c2)cc1` [Example 41, N-(3-Fluoro-4-methanesulfonylaminobenzyl)-2-(4-n-propoxyphenoxy)acetamide], above 10 µM.
